Experimental data published in a melting point compilation (Tetko et al.; mined from patent text by program, amines drawn as free bases though some values may be those of a salt).

| melting point | SMILES |
| --- | --- |
| 58 to 60 °C | CCOC(=O)c1c(OCC)ccn1C(=O)n1cccc1C(=O)O |
| 197 °C | N#Cc1c(C(F)(F)F)cc(-c2ccc(C(F)(F)F)cc2)[nH]c1=O |
| 78 to 79 °C | O=C(OCc1ccccc1)C(=C1NCCCS1)[N+](=O)[O-] |
| 117 to 119 °C | O=C(O)CC1(c2ccccc2)Oc2ccc(Cl)cc2O1 (stereo not drawn) |
| 70 to 72 °C | CCCCCCOc1ccc(CCC(=O)O)cc1 |
| 61 to 63 °C | O=C(NCCO[N+](=O)[O-])c1ccc(Br)o1 |
| 125 to 126 °C | COC(=O)C=C1NCC(c2ccccc2)OC1=O (stereo not drawn) |
| 106 to 108 °C | N#CNC=NCc1ncc(C(F)(F)F)cc1Cl |
| 214 to 217 °C | CCOC(=O)c1nccc(Oc2ccc3c(C(=O)O)cccc3c2)n1 |
| 188 to 190 °C | COc1ccc(CN(CCN(C)C)c2ccc(C(=O)O)cn2)cc1 |
| 105 to 107 °C | O=C(NCCC[C@H]1OC[C@H](c2cccc3cc(OCC4CC4)ccc32)CO1)OCC(F)(F)F |
| > 300 °C | COc1cnc(N2CCN(c3ccc(-n4c(C)n[nH]c4=O)cc3)CC2)nc1 |
| 71 to 72 °C | COC1=CCC(OC)(OC)C=C1CCc1ccc(OC)cc1C |
| 207 to 211 °C | Cc1cc(C2=NN(C3=NNC(=O)CS3)[C@H](C)Cc3cc4c(cc32)OCO4)ccc1[N+](=O)[O-] |
| 65 to 67 °C | O=C(Cl)N1CCCCCCCCCCCNC1=O |
| 230 to 231 °C | O=C1N(Cc2ccccc2)c2cc(Cl)cc(N3CCNCC3)c2S(=O)(=O)N1Cc1cccc(O)c1 |
| 119 to 121 °C | CCCc1nc(S(=O)(=O)Nc2ccccc2Br)nn1-c1ccccc1 |
| 198 to 199 °C | CC(=O)NC(C)(C(=O)NS(=O)(=O)c1ccc(C)cc1)C(C)C (stereo not drawn) |
| 74 to 77 °C | COc1ccc(CCNC(=O)C(F)(F)F)cc1 |
| 252 to 255 °C | CCOC(=O)c1ncc2[nH]c3ccc(C#N)cc3c2c1COC |
| 83 °C | O=C(NCc1cccnc1)c1ccc2n1Cc1ccccc1N(C(=O)Cc1ccc(Cl)cc1)C2 |
| 48 to 49 °C | CCCCN(CCCC)C(=O)CC1(c2ccc(OCOC)cc2)NCC(c2ccc3c(c2)OCO3)C1C(=O)O (stereo not drawn) |
| 132 to 134 °C | CC[C@@H](NC(=O)N1CC(=O)NCC(Cc2cc(Cl)ccc2OC)C1=O)C(=O)Nc1ccc(C)c(C(=O)O)c1 (stereo partly drawn) |
| 79.4 to 80.3 °C | CSc1cc2cc(-c3ccccc3)ccc2cc1OS(=O)(=O)C(F)(F)F |
| 259 to 263 °C | N#Cc1cnc2cc(Cl)c([N+](=O)[O-])cc2c1Nc1ccc(F)c(Cl)c1 |
| 195 to 196 °C | CN1C(=O)c2cc(Nc3ccccc3)c(Nc3ccccc3)cc2C1=O |

| melting point | SMILES |
| --- | --- |
| 48 to 49 °C | Clc1nsnc1-c1cccnc1 |
| 159 to 160 °C | N#Cc1cc(S(=O)(=O)c2ccc(Cl)cc2)[nH]c1-c1ccc(Cl)cc1 |
| 221 to 225 °C | O=C(NS(=O)(=O)c1ccccc1)c1ccc2nc(C3CC3)n(Cc3ccc(-c4ccccc4)cc3)c2c1 |
| 145 to 146 °C | Nc1cccnc1Nc1ccccc1C(=O)c1ccc(Cl)cc1 |
| 87.2 °C | O=S(=O)(Cl)c1cc2c(Br)cccc2o1 |
| 128 to 129 °C | CCCCc1nc2cccc(C(=O)OC)c2n1Cc1ccc(-n2cccc2C#N)cc1 |
| 52 °C | Cc1c(F)c(F)nc(-c2ccc(C(F)(F)F)cc2)c1F |
| 69 to 71 °C | O=C(OCOC(=O)c1ccccc1)Oc1ccc([N+](=O)[O-])cc1 |
| 117 to 119 °C | O=C(O)CC(CC(=O)O)Cc1ccc(O)cc1 |
| 127 to 139 °C | NCc1cccc(Cn2ccc(OCc3ccc(F)cc3)c(Br)c2=O)c1 |
| 130 to 132 °C | CCC(CC)n1cc(Cl)nc(N2CCc3cc(OC)cc(Br)c32)c1=O |
| 24 to 25 °C | CCCCCCCCCCCCCCOc1ccc(CC(=O)OC)cc1Cl |
| 130 to 132 °C | Cn1nc(-c2c(Cl)cncc2Cl)nc1Cc1ccncc1 |
| 216 to 218 °C | COc1nc2sc(S(=O)(=O)Cc3ccccc3)nn2c(=O)c1[N+](=O)[O-] |
| 158 to 159 °C | CN1CC(CCN2CCN(c3ccccn3)CC2)c2nc3ccccc3n2C1=O (stereo not drawn) |
| 233 to 235 °C | CC1(C)CCC(C)(C)c2cc(-c3ccc(-c4ccccc4)c(-c4ccc(C(=O)O)cc4)c3)ccc21 |
| 209 to 211 °C | N#Cc1c[nH]c2ncnc(N3CCCCC3)c12 |
| 143 to 144 °C | COC(=O)c1csc(NC(=O)[C@H](CC2CCCC2)c2ccc(Cl)c(Cl)c2)n1 |
| 143 to 145 °C | CCN(CC)CCOC1=C(c2ccccc2)CN(Cc2ccc(Cl)cc2)C1=O |
| 130 °C | CC(c1cccs1)N(O)C(N)=O (stereo not drawn) |
| 68 to 70 °C | ClCSc1nc(Cl)c(Cl)nc1Cl |
| 120 to 122 °C | Cc1[nH]c2ccc(/C=C/C(=O)OCc3ccccc3)cc2c1Cn1ccnc1 |
| 228 to 230 °C | Cc1[nH]c(=O)c(C#N)cc1-c1ccccc1OCC(C)C(=O)O (stereo not drawn) |
| 110 to 111 °C | OCC1Cc2c(cc(Cl)c3c(-c4ccccc4F)noc23)O1 (stereo not drawn) |
| > 260 °C | COc1cc2sc(C(=O)O)c(Cl)c2cc1OC |
| 249 to 251 °C | COC(=O)c1ccc(Cc2cn(C)c3ccc(C(=O)O)cc23)c(OC)c1 |

| melting point | SMILES |
| --- | --- |
| 128 to 129 °C | CCCSc1nc(-c2ccc(Cl)cc2)c(CCC(=O)O)o1 |
| 116 °C | CN1C(=O)C(CCCCBr)Sc2ccccc21 (stereo not drawn) |
| 97 to 99 °C | CCCOC(=O)C1=C(C)N(C)C(C)=C(C(=O)OCCC)C1c1ccc(Br)cc1 |
| 82 to 83 °C | CCN(C(=O)c1c(Cl)cccc1[Si](C)(C)C)C(OC)C(C)(C)C (stereo not drawn) |
| 117 to 121 °C | COc1ccc(-c2cc(=Nc3c(C)cc(C)cc3C)n(C)c(N3CCN(C(=O)c4ccc(F)cc4)CC3)n2)cc1OC |
| 162 to 163 °C | Cc1cccc(C)c1NCCNCC(O)COc1cccc2[nH]c3ccccc3c12 (stereo not drawn) |
| 151 to 152 °C | CC(=O)c1ccc(NS(C)(=O)=O)c(S(=O)c2ccc(F)cc2F)c1 (stereo not drawn) |
| 82 to 83 °C | COc1ccc(-c2cc(C)c3occc3c2)cc1 |
| 155 °C | N#Cc1ccc(C(=C2C3CC4CC(C3)CC2C4)c2ncc[nH]2)cc1 |
| 125 to 126 °C | OCc1cccc2cc(-c3ccccc3)sc12 |
| 240 to 242 °C | CCCc1nc(C)cc(=O)n1CCOc1ccc(C=C2SC(=O)NC2=O)cc1 |
| 99 to 102 °C | COc1cc(NC(=O)OC(C)(C)C)c(NC(=O)CC(=O)c2cccc(-n3ccnc3)c2)cc1-c1ccc(F)cc1C |
| 212 to 214 °C | COc1ccc(-c2nc(SC(F)(F)C(F)F)[nH]c2-c2ccncc2)cc1 |
| 188 to 191 °C | Cn1c(=O)n(CCCC(NS(=O)(=O)c2ccc(-c3ccc(Cl)cc3)cc2)C(=O)O)c(=O)c2ccccc21 (stereo not drawn) |
| 145 °C | CC1(C)CCC(C)(C)c2cc(C(=O)c3ccccc3C=O)ccc21 |
| 202 to 205 °C | CCCC1=C(C#N)C(c2cccc(Br)c2)c2c[nH]nc2N1 (stereo not drawn) |
| 178 to 180 °C | Cc1cc(C)c(Nc2nc(C)ccc2S(=O)(=O)c2ccc(OCc3ccc(F)cc3)cc2)c(C)c1 |
| 71 to 72.5 °C | COC1(C)CCc2c(C)c(OC(C)=O)c(C)c(C)c2O1 (stereo not drawn) |
| 167 to 168 °C | CC(C)(C)c1ccc(Cn2ccc3cc(-c4ccc(C(C)(C)C)cc4)ccc32)cc1 |
| 100 to 102 °C | CN(C)CCCCCNc1nc2cc(Cl)c(Cl)cc2nc1-c1ccccn1 |
| 211 to 213 °C | CNC(=O)Cc1c(-c2ccccc2)nn2cccnc12 |
| 243 to 245 °C | CC(=O)c1cnc2c(NC(=O)c3c(Cl)cccc3Cl)cccc2c1 |
| 86 to 87 °C | CNC(=S)SCCC(=O)O |
| 150 °C | COC(=S)NCc1cn(-c2ccc(-n3cccc3)cc2)nn1 |
| 105 to 106 °C | COc1cc(-c2nc(C)cs2)cc(OC)c1OC |
| 161 °C | Cc1nccc(C#N)c1OC1SCC(O)C(O)C1O (stereo not drawn) |

| melting point | SMILES |
| --- | --- |
| 199 to 201 °C | COC(=O)C1=C(C)Nc2nccn2C1c1cccc(C2(C)OCCO2)c1 (stereo not drawn) |
| 165 to 168 °C | O=S(=O)(c1[nH]c(-c2ccc(Cl)cc2)c(Br)c1Br)C(F)(F)F |
| 207 °C | CCOC(=O)C1=C(COCC2=CC(=O)N=N2)NC(C)=C(C(=O)OC)C1c1ccccc1Cl (stereo not drawn) |
| 146 °C | CC(C)Cn1nc(-c2ccc(C(F)(F)F)cc2)cc(CO)c1=O |
| 200 to 202 °C | CCc1cccc2c3c([nH]c12)C(CC)(CC(=O)O)OCC3=O (stereo not drawn) |
| 46 to 47 °C | CCCCc1cc2cccnc2[nH]1 |
| 68 °C | CC(=O)OC1CSC(Oc2cncc(-c3cnn(C)c3)c2)C(OC(C)=O)C1OC(C)=O (stereo not drawn) |
| 278 to 280 °C | CC1=C(Cn2ccnc2)CCc2ccc(C(=O)O)cc21 |
| 153 °C | Cc1ccc2c(c1)c(=O)oc(=O)n2Cc1ccc(F)cc1 |
| 222 to 224 °C | CCCCC(=O)c1[nH]c(=O)[nH]c1C |
| 207 to 209 °C | N#Cc1ccc(C(=O)N2CCC3(CC2)C(=O)NC(=O)N3Cc2ccccc2)cc1 |
| 108 to 110 °C | c1ccc2c(Sc3cccc4ccccc34)cccc2c1 |
| 230 to 232 °C | O=C1C(=O)N2CCOc3cc([N+](=O)[O-])cc1c32 |
| 182 °C | CCC(=O)Nc1ccc(OCc2nc3ccccc3s2)cc1 |
| 208 °C | O=C(O)C1Oc2ccc(Cl)cc2C(C2CCCCC2)(C2CCCCC2)O1 (stereo not drawn) |
| 126 to 128 °C | O=C(O)/C(=C\c1ccccc1)CC(=O)N1C[C@H]2CCCC[C@H]2C1 |
| 135 to 137 °C | CSC1NC(=O)N(C2CCCCC2)C(=O)N1C (stereo not drawn) |
| 125 to 126 °C | CN1CCCC(CC(C#N)(Cn2cncn2)c2ccc(Cl)cc2Cl)C1 (stereo not drawn) |
| 70 to 71 °C | O=[N+]([O-])c1ccc2oc(CCC(F)(F)F)cc2c1 |
| 112 to 114 °C | O=C(CCN1CCN(c2cnc3ccccc3c2)CC1)c1csc2ccccc12 |
| 65 °C | C[Si](C)(C)C#Cc1cc(F)cnc1N |
| 194 to 214 °C | CCc1cn(C2OC(CN)C(O)C2F)c(=O)[nH]c1=O (stereo not drawn) |
| 141 to 143 °C | Cc1cc(OCc2ccc(-c3ccc(F)c(C(F)(F)F)c3)nc2C)ccc1OC(C)(C)C(=O)O |
| 95 °C | c1ccc(C(c2ccccc2)(c2ccccc2)N2CCc3sccc3C2)cc1 |

| SMILES | melting point |
| --- | --- |
| CCc1cc2c(s1)-n1nc(C(N)=O)nc1C(OC)N=C2c1ccccc1Cl (stereo not drawn) | 200 to 201 °C |
